Test: xn = mol fraction of the nth substance listed

COC(=O)CC(C)=O + CCOC(=O)c1ccccc1
viscosity [mPa·s], 101.33 kPa
Conditions | x1 = 0.0992 | x1 = 0.2023 | x1 = 0.3004 | x1 = 0.399 | x1 = 0.4991 | x1 = 0.5978 | x1 = 0.6966 | x1 = 0.7979 | x1 = 0.8986
298.15 K | 1.834 | 1.796 | 1.757 | 1.729 | 1.7 | 1.653 | 1.633 | 1.598 | 1.583
303.15 K | 1.661 | 1.627 | 1.593 | 1.571 | 1.543 | 1.501 | 1.484 | 1.452 | 1.44
308.15 K | 1.514 | 1.484 | 1.453 | 1.434 | 1.408 | 1.373 | 1.356 | 1.328 | 1.316

COC(=O)CC(C)=O + CCOC(C)=O
viscosity [mPa·s], 101.33 kPa
Conditions | x1 = 0.0001 | x1 = 0.1006 | x1 = 0.1979 | x1 = 0.2962 | x1 = 0.3988 | x1 = 0.4978 | x1 = 0.5934 | x1 = 0.6964 | x1 = 0.7983 | x1 = 0.9006
298.15 K | 0.433 | 0.488 | 0.551 | 0.624 | 0.711 | 0.81 | 0.916 | 1.051 | 1.195 | 1.376
303.15 K | – | 0.462 | 0.519 | 0.587 | 0.666 | 0.755 | 0.849 | 0.97 | 1.099 | 1.258
308.15 K | – | 0.438 | 0.491 | 0.553 | 0.629 | 0.706 | 0.792 | 0.9 | 1.015 | 1.155

CCOc1ccccc1 + CCOCC
298.15 K, 101 kPa
Conditions | viscosity [mPa·s]
x2 = 0.0745 | 1.027
x2 = 0.0975 | 0.9993
x2 = 0.1855 | 0.8671
x2 = 0.2523 | 0.7856
x2 = 0.3026 | 0.7152
x2 = 0.3516 | 0.6667
x2 = 0.4501 | 0.5713
x2 = 0.5106 | 0.5154
x2 = 0.5579 | 0.4809
x2 = 0.6048 | 0.4406
x2 = 0.6882 | 0.3866
x2 = 0.7485 | 0.3494
x2 = 0.8303 | 0.3057
x2 = 0.9004 | 0.2674

COc1ccc(C=O)cc1 + CCOCCO
viscosity [mPa·s], 101 kPa
Conditions | x1 = 0.0825 | x1 = 0.1683 | x1 = 0.2576 | x1 = 0.3506 | x1 = 0.4474 | x1 = 0.5484 | x1 = 0.6539 | x1 = 0.7641 | x1 = 0.8793
303.15 K | 1.521 | 1.534 | 1.586 | 1.682 | 1.828 | 2.03 | 2.294 | 2.629 | 3.044
308.15 K | 1.459 | 1.483 | 1.535 | 1.618 | 1.735 | 1.891 | 2.09 | 2.338 | 2.641
313.15 K | 1.33 | 1.371 | 1.431 | 1.512 | 1.617 | 1.749 | 1.912 | 2.108 | 2.342
318.15 K | 1.251 | 1.294 | 1.351 | 1.423 | 1.513 | 1.623 | 1.755 | 1.911 | 2.096

CCCCCCCCn1cc[n+](C)c1.[Cl-] + CN1CCCC1=O
100 kPa
Conditions | viscosity [mPa·s]
293.15 K, x1 = 0.2805 | 26.15
308.15 K, x1 = 0.3657 | 33.55
308.15 K, x1 = 0.4679 | 67.15
318.15 K, x1 = 0.4679 | 43.25

CCOC(C)=O + CN1CCCC1=O
viscosity [mPa·s], 101 kPa
Conditions | x2 = 0.1022 | x2 = 0.2038 | x2 = 0.305 | x2 = 0.4057 | x2 = 0.506 | x2 = 0.6057 | x2 = 0.705 | x2 = 0.8038 | x2 = 0.9021
303.15 K | 0.556 | 0.725 | 0.879 | 1.023 | 1.154 | 1.271 | 1.369 | 1.449 | 1.511
308.15 K | 0.523 | 0.669 | 0.804 | 0.928 | 1.042 | 1.147 | 1.235 | 1.307 | 1.365
313.15 K | 0.492 | 0.628 | 0.753 | 0.869 | 0.975 | 1.07 | 1.153 | 1.221 | 1.274
318.15 K | 0.462 | 0.582 | 0.695 | 0.798 | 0.893 | 0.976 | 1.051 | 1.114 | 1.165

CCOc1ccccc1 + CN1CCCC1=O
viscosity [mPa·s], 101.33 kPa
Conditions | x1 = 0.041 | x1 = 0.122 | x1 = 0.201 | x1 = 0.273 | x1 = 0.37 | x1 = 0.504 | x1 = 0.628 | x1 = 0.709 | x1 = 0.822
298 K | 1.667 | 1.648 | 1.622 | 1.594 | 1.551 | 1.481 | 1.408 | 1.36 | 1.285
303 K | 1.541 | 1.518 | 1.49 | 1.461 | 1.418 | 1.353 | 1.286 | 1.242 | 1.175
308 K | 1.432 | 1.406 | 1.377 | 1.348 | 1.307 | 1.244 | 1.183 | 1.141 | 1.08

OCC(O)CO + CN1CCCC1=O
101 kPa
Conditions | viscosity [mPa·s]
298 K, x2 = 0.078 | 418.4
298 K, x2 = 0.16 | 269.4
298 K, x2 = 0.338 | 72.84
298 K, x2 = 0.433 | 38.94
298 K, x2 = 0.534 | 20.42
298 K, x2 = 0.641 | 11.12
298 K, x2 = 0.754 | 4.23
298 K, x2 = 0.873 | 2.44
303 K, x2 = 0.078 | 289.9
303 K, x2 = 0.16 | 160.5
303 K, x2 = 0.336 | 55.93
303 K, x2 = 0.432 | 30.16
303 K, x2 = 0.533 | 17.83
303 K, x2 = 0.64 | 9.48
303 K, x2 = 0.753 | 3.75
303 K, x2 = 0.872 | 2.26
308 K, x2 = 0.077 | 211.3
308 K, x2 = 0.159 | 118.3
308 K, x2 = 0.335 | 43.4
308 K, x2 = 0.43 | 25.79
308 K, x2 = 0.531 | 15.16
308 K, x2 = 0.638 | 7.7
308 K, x2 = 0.751 | 3.27
308 K, x2 = 0.872 | 2.02
313 K, x2 = 0.077 | 143.4
313 K, x2 = 0.158 | 87.14
313 K, x2 = 0.334 | 35.17
313 K, x2 = 0.43 | 20.73
313 K, x2 = 0.53 | 10.45
313 K, x2 = 0.637 | 6.13
313 K, x2 = 0.751 | 2.91
313 K, x2 = 0.871 | 1.88
318 K, x2 = 0.077 | 106.1
318 K, x2 = 0.158 | 54.08
318 K, x2 = 0.334 | 25
318 K, x2 = 0.429 | 16.1
318 K, x2 = 0.53 | 9.03
318 K, x2 = 0.637 | 5.17
318 K, x2 = 0.75 | 2.68
318 K, x2 = 0.871 | 1.72
323 K, x2 = 0.077 | 83.45
323 K, x2 = 0.158 | 50.16
323 K, x2 = 0.334 | 21.33
323 K, x2 = 0.429 | 13.43
323 K, x2 = 0.53 | 7.11
323 K, x2 = 0.637 | 4.64
323 K, x2 = 0.75 | 2.46
323 K, x2 = 0.871 | 1.6

From the CheMixHub viscosity set
